What was measured:
[1] = Antagonist activity at LPA5 receptor in human isolated platelets assessed as inhibition of hexadecyl-LPA-induced platelet aggregation after 3 mins
[2] = Antagonist activity at LPA2 receptor in human isolated platelets assessed as inhibition of TRAP-induced platelet aggregation after 3 mins

Compound	IC50 [1] [µM]	IC50 [2] [µM]
Cc1csc2c(N[C@@H](C)CN3CCN(S(=O)(=O)c4ccc(Cl)c(Cl)c4)CC3)ncnc12	> 30	
COc1cccc(-n2nc(C(=O)O)cc2-c2ccc(C3CCCCC3)c(Cl)c2)c1	2.2	> 10
Cc1noc(-c2ccc(CSCCC(=O)O)cc2)c1NC(=O)OC(C)c1ccccc1Cl (centres undefined) [3-(4-(4-((1-(2-chlorophenyl)ethoxy)carbonylamino)-3-methylisoxazol-5-yl)benzylthio)propanoic acid]	> 30	

From BindingDB's records for doi:10.1016/j.bmcl.2012.06.057 (Sanofi-Aventis Deutschland, 2012)
